Laboratory results as given in US6423834B1, “KDO aldolase and condensation reactions employed therewith” (The Scripps Research Institute, priority 1992, dated 2002).
Like-named read-outs stand apart in the source and are kept apart here.

What was measured:
[1] = test system: KDO aldolase (EC 4.1.2.23); test: KDO aldolase-catalyzed aldol condensation of sugars with pyruvate (kinetic and relative rate measurements via remaining pyruvate); assay type: biochemical, Aureobacterium barkerei strain KDO-37-2; conditions: for rel. V (relative rate of aldol condensation): pyruvate 10 mM, sugar 0.5 M, 0.1 M phosphate pH 7.5, 37° C., relative to D-arabinose
Description: (§1) Partially purified KDO aldolase simply obtained by ammonium sulfate precipitation (8.0 U/mL; 0.19 U/mg for degradation of KDO) was used in substrate-specificity studies reported herein. The KDO aldolase employed for the kinetic analysis reported herein, was further purified via DEAE sepharose and phenyl sepharose column chromatography to a specific activity of 5.7 U/mg. […] The enzymatic reaction favors the cleavage of KDO, with the equilibrium constant Keq=[pyruvate][arabinose]/KDO=9×10^−2M.
The rates for aldolase-catalyzed reactions were obtained by measuring the amount of remaining pyruvate, according the method of Kim (supra). The reactions were carried out in 0.1 M phosphate buffer (pH 7.5) containing: varied concentrations of pyruvate, 2.0, 3.33, 5, and 10 mM; varied concentrations of D-arabinose, 0.2, 0.25, 0.33, and 0.50 M in 0.5 mL of solution. Each solution was incubated at 37° C. Periodically, a small aliquot (25-100 μL) was withdrawn and mixed with an assay solution (1.4 mL) containing 0.1 M phosphate (pH 7.5) buffer, 0.3 mM NADH, and 20-30 U of L-lactate dehydrogenase. The decrease in absorbance at 340 nm was measured and converted into the amount of the unreacted pyruvate using 6220 M^−1cm^−1 for the molecular absorbance of NADH. The kinetic parameters were obtained from the Lineweaver-Burk plots.
For the relative rate measurements, the concentration of pyruvate (fluoropyruvate) and sugar were fixed at 10 mM and 0.5 M, respectively. Other conditions were the same as above.

KDO aldolase [2] = conditions: enzyme from E. coli; cited from earlier work
KDO aldolase [3] = conditions: enzyme from Aerobacter cloacae; cited from earlier work
[4] = Proportion of β-isomer by comparing 1H NMR spectra; assay type: physicochemical
Procedure: Finally, the aldol reaction with an unnatural sugar containing a fluorine atom was conducted to give 18 (19% of 19). By comparing the ^1H NMR spectra, the proportion of the β-isomer (10.71) of 18 was ca. 1.5 times higher than that of KDO (6.9%), probably due to the absence of furanose and 1<<5 lactone forms. […] (Kohlbrenner, W. E. and Fesik, S. W., J. Biol. Chem. 1985, 260, 14695.) We therefore synthesized 18 in a larger scale by combining the use of KDO aldolase and pyruvate decarboxylase, which made the workup procedure much easier.

[5] = test system: KDO aldolase (EC 4.1.2.23); test: KDO aldolase degradation (cleavage) of KDO; assay type: biochemical, Aureobacterium barkerei strain KDO-37-2; conditions: read-out: Km in the course of degradation
Procedure: It is disclosed herein that the Gram-positive bacterium Aureobacterium barkerei strain KDO-37-2 can be induced to contain high levels of KDO aldolase. The aldolase activity from this source was assayed according to Aminoff's method (Biochem. J. 1961, 81, 384). Two liters of culture contained 10.2 U based on the degradation of KDO. This KDO activity is 4 times and 8 times higher than the corresponding KDO activity from Escherichia coli K-12 and Aerobacter cloacae, respectively, as reported by Gharambor (supra).
as §1
With one slight modification, the incubation was carried out according to the procedure reported by Gharambor (supra). […] The enzyme activity was determined to be 1.45 U/mL for the degradation of KDO according to the method of Aminoff (Biochem. J. 1961, 81, 384). […]

For O=CC[C@H](O)[C@H](O)CO [2-deoxy-D-ribose], the “rel. V (relative rate of aldol condensation)” value [1] was 71%.

With O=C[C@@H](O)[C@H](O)[C@H](O)[C@H](O)CO [D-altrose] the “rel. V (relative rate of aldol condensation)” value [1] was 25%.

O=C[C@@H](O)[C@H](O)[C@H](O)CO [D-arabinose, reference compound] gave a Vmax ([1]; condensation of D-arabinose with pyruvate, enzyme purified to 5.7 U/mg) of 0.73 U/mg.

In the case of O=C[C@H](O)[C@H](O)[C@H](O)CO [D-ribose], the “rel. V” value (KDO aldolase [2]) is given as < 5%, the “rel. V” value (KDO aldolase [3]) is given as < 5% and the “rel. V (relative rate of aldol condensation)” value [1] is given as 72%.

With O=C(O)C(=O)C[C@@H](O)[C@@H](O)[C@H](O)[C@H](O)CO [KDO, 3-deoxy-D-manno-2-octulosonic acid] the “proportion of the β-isomer” value [4] was 6.9% and the Km [5] was 6 mM.

For C[C@H](O)[C@@H](O)[C@@H](O)[C@H](O)C=O [L-fucose], the “rel. V (relative rate of aldol condensation)” value [1] was “rate not detectable”.

In the case of O=C(O)C(=O)CF [fluoropyruvate], the “accepted as substrate for the condensation” value [1] was “neither fluoropyruvate nor ketohexose was accepted”.
